According to patent US12344584B2, “KCNQ potentiators” (Eli Lilly and Company, priority 2019, dated 2025):
pEC50: −log10 of the molar value. Like-named read-outs stand apart in the source and are kept apart here.

How the values were obtained:
[1] = molecular target: T1, hKv7.2 and hKv7.3 (Kv7.2/7.3) (Homo sapiens, UniProt O43525+O43526); assay: Modulation of Kv7.2/7.3 conductance, automated electrophysiology (IonWorks Barracuda, population patch clamp) in HEK293 cells; type: cell-based; parameters: Voltage Shift ([…]V0.5), Mean: unit not given here; conditions: for Maximal Shift (efficacy) / Slope / pEC50: 4-parameter logistic fit of voltage shift data; for pEC50: read-out: EC50 (potency of V0.5 shift)
T1 construct: host or cells: HEK293
Protocol: Modulation of Kv7.2/7.3 Conductance by Kv7 Potentiators in a Mammalian Expression System
The potency and efficacy of Kv7 potentiators is assessed by automated electrophysiology on the IonWorks Barracuda (Molecular Devices) platform using the population patch clamp mode of the instrument.
Cell Culture: HEK293 cells stably expressing hKv7.2 (under tetracycline induction) and hKv7.3 (Catalog #CT6147, Charles River) are used for these studies. Cells are maintained in a Dulbecco's modified Eagle's medium/nutrient mixture Ham's F-12 (Sigma-Aldrich) supplemented with 5% tetracycline-screened fetal bovine serum (Sigma-Aldrich), 15 mM HEPES, 500 μg/mL G418, 100 U/mL penicillin, 100 μg/mL streptomycin, […] L-glutamine, 100 μg/mL zeocin, and 5 μg/mL blasticidin. Expression of hKv7.2 is induced by addition of 1 μg/mL doxycycline 24 h prior to recordings.
Cells are cultured in Corning T-150 flasks to a confluence of 85%-95%. At the start of an experiment, cells are washed once with D-PBS without calcium and magnesium and then dissociated by incubating in 3 ml of 0.25% trypsin for 8 min at 37° C. Cells ware resuspended in media, triturated gently, and centrifuged for 4 min at 1,000 rpm. Cells are resuspended in external solution to a final concentration of 2.5-3.5M cells/mL.
Solutions: External solution w is composed of (in mM): 140 NaCl, 5 KCl, 2 CaCl2, 1 MgCl2, 10 HEPES, 10 Glucose, pH 7.4. Internal solution is composed of (in mM): 90 K-gluconate, 40 KCl, 3.2 EGTA, 3.2 MgCl2, 5 HEPES, pH 7.25. The membrane perforating agent amphotericin B is prepared daily as a 27 mg/mL stock solution in DMSO and then added to the internal solution to a final concentration of 0.1 mg/mL. Test article dilutions are prepared in 384-well plates from 10 mM DMSO stock solutions and diluted using acoustic dispensing (Labcyte ECHO®), such that final DMSO concentrations are 0.1%.
Electrophysiological Recordings: Resuspended cells are placed on the IONWORKS® BARRACUDA™ (IWB) instrument, external solution is added to a 384-well patch plate, and a hole test is performed to determine blocked wells and offset voltages. Cells are then added to the patch plate (9 μL per well) by the instrument. Two seal tests are performed prior to introducing the perforating agent amphotericin in the internal solution and allowing approximately 8 min to obtain electrical access, which is verified by a third seal test. The command voltage protocol consists of a family of 1 sec voltages steps from −80 mV to +40 mV from a holding potential of −80 mV and is applied prior to (baseline) and 6 min after test article addition.
Data Analysis: Data are acquired and leak subtracted using IWB software. Current amplitudes during the last 10 msec of each voltage step are averaged and exported. Further analysis is performed using Microsoft Excel and GraphPad Prism. Current amplitude is converted to conductance (G) by the following formula: G=I/(V−Ek) where I=current, V=step potential, Ek=potassium reversal potential (−84 mV). Conductance in the presence of test article is normalized to the baseline conductance at +40 mV for the same well. Conductance-voltage (G−V) curves are fitted with the Boltzmann equation y=Bottom+(Top−Bottom)/(1+EXP((Vm−V0.5/k)).
Fitting a 4-parameter logistic equation to the data may be used to determine the potency (EC50) and efficacy (maximal shift) for each test compound.

peripheral axons = assay: Threshold tracking of peripheral nerve excitability in anesthetized rats; type: in vivo; conditions: rat, dosed 45 min after Example 1 at 30 mg/kg
Protocol: Threshold Tracking to Measure the Effects of Example 1 at 3.10 and 30 mg/kg IP on Peripheral Nerve Excitability
Threshold tracking is a non-invasive technique that allows measurement of the excitability properties of peripheral axons by providing information about their membrane potential and ion channel function.
16 male Wistar rats from Charles River, weighing between 307-446 g ware used. Animals are group housed with standard housing conditions (4 per cage, 07:00 h to 19:00 h light phase, constant temperature (21° C.) and humidity, and free access to food and water, as well as environmental enrichment).
Rats are anesthetized with isoflurane (2-2.5%, O2 at 0.5 L/min) and then placed on their back on a heating pad to keep the tail temperature above 32° C. The placement of the ring electrodes are marked out and the marked sections of the tail are scraped with a blade to remove hair and the top layer of skin. The sites are cleaned with water and dried, allowing fora good conduction between the skin and the sticky electrodes.
A sticky ring stimulating electrode (+ve anode) is wrapped around the foot. A second sticky ring stimulating electrode (−ve cathode) is wrapped 1.5 cm from the base of the tail. A needle recording electrode is placed just off center on the top of the tail, 6 cm distal to the stimulating cathode at the base of the tail. A needle reference electrode is placed just off center on the top of the tail, 2 cm distal to the recording electrode. A sticky ground electrode is wrapped around the tail 2 cm proximal from the recording electrode.
• Start the Multitrack program (description below) and Spike. • Record 15 min of stable baseline • After the 15 min, dose with Example 1 or HEC • Take blood spot for PK at the following: • 10 min post dose • 20 min post dose • 30 min post dose • 40 min post dose • 45 min after IP (intraperitoneal) dosing with Example 1, dose XE-991 (XE-991 is a commercially available compound that blocks KCNQ potentiator effects in a formalin assay in vivo—see Y. Zheng, et al., “Activation of peripheral KCNQ channels relieves gout pain,” Pain, 156 (2015) 1025-1035; and R. Zaczek, et al., “Two New Potent Neurotransmitter Release Enhancers, 10,10-Bis(4-Pyridinylmethyl)-9(10H)-Anthracenone and 10,10-Bis(2-Fluoro-4-Pyridinylmethyl)-9(10H)-Anthracenone: Comparison to Linopirdine” The Journal of Pharmacology and Experimental Therapeutics, 285:724-730, 1998. • (XE-991 is only dosed after Example 1 at 30 mg/kg) • Take blood spot for PK at the following: • 10 min post dose (55 min post Example 1 administration) • 20 min post dose (65 min post Example 1 administration) • 30 min post dose (75 min post Example 1 administration) • 40 min post dose (85 min post Example 1 administration)
In threshold tracking assay to measure the excitability properties of peripheral axons studies in rat, compound is administered by IP at 3, 10 or 30 mg/kg using 1% hydroxyethylcellulose: 0.25% polysorbate 80:0.05% antifoam:purified water (HEC) formulation. Dry blood spots (DBS) are collected around 10, 20, 30 and terminal 40 min post-dose. DBS samples are dried at RT for around 2 h. Brain samples are obtained at terminal time point and frozen until analysis. DBS samples are shipped and stored at RT.

[2] = tested on: motor neurons derived from ALS patient iPSC line with pathogenic mutation in TARDBP; assay: Optopatch excitability assay in motor neurons derived from ALS patient iPSC line (TARDBP mutation); type: cell-based, human; conditions: Homo sapiens, iPSC, TARDBP line, blue LED 5.1 mW/cm^2, mean, read-out: EC50, inhibition of excitability (action potential frequency)
Excerpt: (§1) Optopatch Excitability Assay for Example 1 in Motor Neurons Derived From ALS Patient iPSC Lines
(§2) Altered excitability of cortical neurons and lower motor neuron is an important factor in the pathophysiology of ALS (See, for example, K. Kanai, et. al., J Neurol Neurosurg Psychiatry, 83, 734-738 (2012); P. Menon, et. al., Eur Neurol., 24, 816-824 (2017)). All-optical electrophysiology (“Optopatch”) was used to evaluate excitability in cultured motor neurons derived from iPSC lines from two ALS patients with different pathogenic mutations.
(§3) Cell Culture: The two iPSC lines are derived from one patient with a pathogenic mutation in TARDBP and one patient with a pathogenic repeat expansion mutation in C9orf72, respectively. Motor neurons are generated from these lines by a 2D differentiation method adapted from the dual SMAD inhibition neuronal patterning protocol (See S. M. Chambers, et. al., Nat Biotechnol., 27, 275-280 (2009)) by inclusion of motor neuron morphogens. Differentiation is verified by visual inspection, karyotyping and staining for beta-III-tubulin and the nuclear motor neuron marker ISL1. Neurons are cultured on a monolayer of mouse glia in mTeSR (Stem Cell Technologies), supplemented with 10 ng/mL BDNF. Forty-eight hours prior to imaging, 100 nM trans-retinal was added to the medium.
(§4) Transduction with Optopatch vectors: At 15 days in vitro, cultured motor neurons are transduced with a lentiviral vector to drive the co-expression of the actuator CheRiff-mOrange2 and the voltage indicator QuasAr3-Citrine (for details see D. R. Hochbaum, et. al., Nat. Methods, 11, 825-833 (2014)). Forty-eight hours prior to imaging, 100 nM trans-retinal was added to the medium.
Solutions: Recordings are performed in Brainphys™ imaging buffer with 3 mM potassium. The gap junction blocker 2-aminoethoxydiphenyl borate (50 μM) is added to eliminate electrical coupling between cells, and NBQX (10 μM), gabazine (20 μM), and AP5 (25 μM) were used to block synaptic transmission.
Optopatch Recordings: Five days after transduction, Optopatch imaging is performed on a custom, ultra-widefield fluorescence microscope at RT. Motor neurons are illuminated with red laser excitation (200 W/cm^2; 635 nm) to monitor changes in QuasAr fluorescence and blue LED excitation (0-127 mW/cm^2, 470 nm) to depolarize the cell membrane with CheRiff. A custom blue light stimulus protocol is used consisting of: i) 2 sec of red illumination only to monitor spontaneous activity, ii) 5×500 msec steps of increasing blue light intensity and iii) 2×2 sec linearly increasing blue light ramps, each with a different maximum blue intensity. Optopatch data are recorded using a Hamamatsu ORCA-Flash 4.0 sCMOS camera with a 1 kHz frame rate. The field of view size is 4 mm×0.5 mm. Custom control software written in MATLAB is used to control illumination protocols and record all movies. To examine acute effects of Kv7.2/7.3 potentiators, neurons are incubated with test compound for 15 min prior to imaging.
(§5) Data Analysis: Image segmentation analysis is performed using temporal Principle Component Analysis and spatial-temporal Independent Component Analysis to isolate individual neurons. A spike-finding algorithm is used to find action potentials, and data are analyzed for compound effects on mean firing rate, adaptation, rheobase and action potential waveform shape by comparing to vehicle controls (for detail, see C. A. Werley, et. al., Curr. Protoc. Pharmacol., 78, 11.20.1-11.20.24. (2017)).
Subjected to the protocol described above, the primary effect of the Example 1 is on the action potential firing rate in response to low intensity blue light illumination.
Fitting a 4-parameter logistic equation to the data may be used to determine the potency (EC50) of the effect of Example 1 on action potential frequency. Results are shown in Table 1 for two separate differentiation efforts each for the lines derived from the patients carrying the TARDBP and C9orf72 mutations.

[3] = tested on: motor neurons derived from ALS patient iPSC line with pathogenic repeat expansion mutation in C9orf72; assay: Optopatch excitability assay in motor neurons derived from ALS patient iPSC line (C9orf72 repeat expansion); type: cell-based; conditions: Homo sapiens, read-out: EC50, inhibition of excitability (action potential frequency)
Excerpt: as §1, §2, §3, §4
Solutions: Recordings are performed in Brainphys™ imaging buffer with 3 mM potassium. […]
Optopatch Recordings: Five days after transduction, Optopatch imaging is performed on a custom, ultra-widefield fluorescence microscope at RT. Motor neurons are illuminated with red laser excitation (200 W/cm^2; 635 nm) to monitor changes in QuasAr fluorescence and blue LED excitation (0-127 mW/cm^2, 470 nm) to depolarize the cell membrane with CheRiff. […] Optopatch data are recorded using a Hamamatsu ORCA-Flash 4.0 sCMOS camera with a 1 kHz frame rate. […]
as §5, with “(2017)). […]” for “(2017)).”

[4] = 10 μM, difference from control in voltage at half-maximal conductance

Row | Voltage Shift ([…]V0.5), Mean ([1]; 0.0005 μM) | Voltage Shift ([…]V0.5), Mean ([1]; 0.0015 μM) | Voltage Shift ([…]V0.5), Mean ([1]; 0.005 μM) | Voltage Shift ([…]V0.5), Mean ([1]; 0.01 μM) | Voltage Shift ([…]V0.5), Mean ([1]; 0.04 μM) | Voltage Shift ([…]V0.5), Mean ([1]; 0.12 μM) | Voltage Shift ([…]V0.5), Mean ([1]; 0.37 μM) | Voltage Shift ([…]V0.5), Mean ([1]; 1.11 μM) | Voltage Shift ([…]V0.5), Mean ([1]; 3.33 μM) | Voltage Shift ([…]V0.5), Mean [1, 4] | Maximal Shift (efficacy) [1] | Slope [1] | pEC50 [1] | pEC50 ([2]; Diff 1) | pEC50 ([2]; Diff 2) | pEC50 ([3]; Diff 1, blue LED 5.1 mW/cm^2, mean) | pEC50 ([3]; Diff 2, blue LED 5.1 mW/cm^2, mean) | Structure (SMILES) | reversal of the Example 1 induced increase in absolute threshold (peripheral axons)
1 | 3.9 | 0.1 | 1.9 | −1.8 | −4.4 | −11.0 | −19.6 | −21.9 | −23.9 | −21.9 | −23 | 1.1 | 7.00 | – | – | – | – | O=C(NCCC1(C(F)(F)F)CC1)NCc1ccnc(OCC(F)(F)F)c1 [Example 3, 1-[[2-(2,2,2-trifluoroethoxy)-4-pyridyl]methyl]-3-[2-[1-(trifluoromethyl)cyclopropyl]ethyl]urea] | –
2 | – | – | – | – | – | – | – | – | – | – | – | – | – | – | – | – | – | O=C1c2ccccc2C(Cc2ccncc2)(Cc2ccncc2)c2ccccc21 [XE-991, reference compound] | able to reverse this increase
3 | 6.1 | 4.1 | 5.0 | 4.1 | 7.4 | 2.9 | −1.9 | −10.6 | −23.0 | −25.8 | −28 | 1.3 | 5.96 | – | – | – | – | O=C(NCc1ccnc(OCC(F)(F)F)c1)NCC(O)C1(C(F)(F)F)CC1 (single isomer, unassigned) [Example 2, (+)-1-[2-hydroxy-2-[1-(trifluoromethyl)cyclopropyl]ethyl]-3-[[2-(2,2,2-trifluoroethoxy)-4-pyridyl]methyl]urea and (−)1-[2-hydroxy-2-[1-(trifluoromethyl)cyclopropyl]ethyl]-3-[[2-(2,2,2-trifluoroethoxy)-4-pyridyl]methyl]urea] | –
4 | – | – | – | – | – | – | – | – | – | – | – | – | – | 5.94 | 6.08 | 5.78 | 5.87 | CCOC(=O)Nc1ccc(NCc2ccc(F)cc2)nc1N [Flupirtine, flupirtine, reference compound] | –
